The text below walks through data of patent US6462069B2, “Compounds, pharmaceutical compositions, and methods for inhibiting protein kinases” (Agouron Pharmaceuticals, Inc., priority 2000, dated 2002).

What all share (type): biochemical
In one assay the target is T1, CDK2/cyclin A complex (Homo sapiens, UniProt P24941).
T1 construct: made in house; host or cells: CDK2: insect cells (baculovirus); cyclin A: E. coli
Nature of the assay: Inhibition of CDK2/Cyclin A retinoblastoma kinase activity. The settings on record: for Ki: apparent Ki. The protocol: (§1) Cyclin-dependent kinase activity was measured by quantifying the enzyme-catalyzed, time-dependent incorporation of radioactive phosphate from [^32P]ATP or [^33P]ATP into a protein substrate. Unless noted otherwise, assays were performed in 96-well plates in a total volume of 50 μL, in the presence of 10 mM HEPES (N-[2-hydroxyethyl]piperazine-N′-[2-ethanesulfonic acid]) (pH 7.4). 10 mM MgCI2, 25 μM adenosine triphosphate (ATP), 1 mg/mL ovalbumin, 5 μg/mL leupeptin, 1 mM dithiothreitol, 10 mM beta-glycerophosphate, 0.1 mM sodium vanadate, 1 mM sodium fluoride, 2.5 mM ethylene glycol-bis(β-aminoethyl ethKer)-N,N,N′N′-tetraacetic acid (EGTA), 2% (v/v) dimethylsulfoxide, and 0.03-0.4 μCi [^32/33P]ATP per reaction. Reactions were initiated with enzyme, incubated at 30° C. and terminated after 20 minutes by the addition ofethylenediaminetetraacetic acid (EDTA) to 250 mM. The phosphorylated substrate was then captured on a nitrocellulose or phosphocellulose membrane using a 96-well filtration manifold, and unincorporated radioactivity was removed by repeated washing with 0.85% phosphoric acid. Radioactivity was quantified by exposing the dried membranes to a phosphorimager.
(§2) Apparent Ki values were measured by assaying enzyme activity in the presence of different inhibitor compound concentrations and subtracting the background radioactivity measured in the absence of enzyme. Inhibition data were fit to an equation for competitive inhibition using Kaleidagraph (Synergy Software), or were fit to an equation for competitive tight-binding inhibition using the software KineTic (BioKin, Ltd.).
CDK2 was purified using published methodology (Rosenblatt et al., “Purification and Crystallization of Human Cyclin-dependent Kinase 2,” J. Mol. Biol., vol. 230, pp. 1317-1319 (1993)) from insect cells that had been infected with a baculovirus expression vector. […] Ki values were measured as described above.

Assay [1] has as its target T2, full-length human CHK1 (FL-CHK1) (Homo sapiens, UniProt O14757).
T2 construct: C-terminally His-tagged full-length human CHK1 (FL-CHK1); made in house; host or cells: baculovirus/insect cell system
T2 sequence (O14757 1-476): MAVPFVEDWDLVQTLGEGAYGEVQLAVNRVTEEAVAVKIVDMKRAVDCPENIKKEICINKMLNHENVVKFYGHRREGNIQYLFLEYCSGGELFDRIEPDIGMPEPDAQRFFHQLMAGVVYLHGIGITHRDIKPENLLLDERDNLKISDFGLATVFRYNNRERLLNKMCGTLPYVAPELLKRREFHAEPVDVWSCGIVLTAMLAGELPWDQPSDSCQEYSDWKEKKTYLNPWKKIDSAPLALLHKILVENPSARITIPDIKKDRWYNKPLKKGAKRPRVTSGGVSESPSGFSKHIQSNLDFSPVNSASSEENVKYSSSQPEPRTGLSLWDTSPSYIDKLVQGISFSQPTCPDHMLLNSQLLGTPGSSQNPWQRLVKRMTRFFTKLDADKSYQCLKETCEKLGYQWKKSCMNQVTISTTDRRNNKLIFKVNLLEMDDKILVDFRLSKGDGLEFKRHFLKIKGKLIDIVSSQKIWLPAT
The assay can be described thus: CHK1 assay (coupled spectrophotometric). An excerpt:
C-terminally His-tagged full-length human CHK1 (FL-CHK1) was expressed using the baculovirus/insect cell system. It contains 6 histidine residues (6×His-tag) at the C-terminus of the 476 amino acid human CHK1. The protein was purified by conventional chromatographic techniques.
The production of ADP from ATP that accompanies phosphoryl transfer to the synthetic substrate peptide Syntide-2 ([…]) was coupled to oxidation of NADH using phosphoenolpyruvate (PEP) through the actions of pyruvate kinase (PK) and lactic dehydrogenase (LDH). The oxidation of NADH was monitored by following the decrease of absorbance at 340 nm (∈340=6.22 cm^−1 mM^−1) using a HP8452 spectrophotometer. Typical reaction solutions contained: […] PEP; 0.15 mM NADH; 28 units of LDH/ml; 16 units of PK/ml; 3 mM DTT; 0.125 mM Syntide-2: 0.15 mM ATP; 25 mM MgCI2 in 50 mM TRIS, pH 7.5; and 400 mM NaCl. Assays were initiated with 10 nM of FL-CHK1. Ki values were determined by measuring initial enzyme activity in the presence of varying concentrations of test compounds. The data were analyzed using Enzyme Kinetic and Kaleidagraph software.

The target in a further assay is T3, CDK4/cyclin D3 complex (Homo sapiens, UniProt P11802).
T3 construct: made in house; host or cells: insect cells co-infected with baculovirus expression vectors
Nature of the assay: Inhibition of CDK4/Cyclin D retinoblastoma kinase activity. The note with it: for Ki: apparent Ki. The protocol:
as §1, §2
A complex of human CDK4 and cyclin D3, or a complex of human CDK4 and genetically truncated (1-264) cyclin D3, was purified using traditional biochemical chromatographic techniques from insect cells that had been co-infected with the corresponding baculovirus expression vectors ((see e.g., Meijer and Kim, “Chemical Inhibitors of Cyclin-Dependent Kinases,” Methods in Enzymol,. vol. 283, pp. 113-128 (1997)). The enzyme complex (5 or 50 nM) was assayed with 0.3-0.5 μg of purified recombinant retinoblastoma protein fragment (Rb) as a substrate. The engineered Rb fragment (residues 386-928 of the native retinoblastoma protein; 62.3 kDa) contains the majority of the phosphorylation sites found in the native 106-kDa protein, as well as a tag of six histidine residues for ease of purification. Phosphorylated Rb substrate was captured by microfiltration on a nitrocellulose membrane and quantified using a phosphorimager as described above. For measurement of tight-binding inhibitors, the enzyme complex concentration was lowered to 5 nM, and the assay duration was extended to 60 minutes, during which the time-dependence of product formation was linear.

T3 sequence (P11802 whole entry): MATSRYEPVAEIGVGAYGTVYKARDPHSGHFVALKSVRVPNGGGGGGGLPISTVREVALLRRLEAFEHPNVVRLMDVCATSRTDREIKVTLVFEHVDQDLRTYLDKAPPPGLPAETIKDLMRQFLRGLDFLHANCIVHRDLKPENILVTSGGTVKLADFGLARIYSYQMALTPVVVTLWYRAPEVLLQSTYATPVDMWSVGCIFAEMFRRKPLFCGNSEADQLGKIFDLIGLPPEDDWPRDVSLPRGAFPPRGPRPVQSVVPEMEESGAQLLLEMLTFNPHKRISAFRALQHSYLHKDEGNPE
T3 sequence (P30281 whole entry partner): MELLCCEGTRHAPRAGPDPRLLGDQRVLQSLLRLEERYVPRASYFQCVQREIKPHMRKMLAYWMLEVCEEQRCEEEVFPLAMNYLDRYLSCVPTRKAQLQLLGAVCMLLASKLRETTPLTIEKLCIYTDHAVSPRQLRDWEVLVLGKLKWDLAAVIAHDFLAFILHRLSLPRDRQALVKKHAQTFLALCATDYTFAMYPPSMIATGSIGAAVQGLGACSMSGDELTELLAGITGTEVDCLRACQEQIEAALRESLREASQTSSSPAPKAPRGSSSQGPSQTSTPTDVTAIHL

For `c1ccc(Nc2cc(-c3cccnc3)[nH]n2)cc1` [Compound C], the Ki at CDK2/cyclin A complex is 61 µM; in assay [1] it was 1.5 µM; at CDK4/cyclin D3 complex, 59 µM.

In the case of `c1ccc(Nc2n[nH]c3c2-c2ccccc2C3)cc1` [Compound D, (1,8-Dihydro-indeno[2,1-c]pyrazol-3-yl)-phenyl-amine], the Ki on CDK2/cyclin A complex is 25 µM; at CDK4/cyclin D3 complex, 7.4 µM.

For `Brc1cscc1-c1cc(Nc2ccccc2)n[nH]1` [Compound E, [5-(4-Bromo-thiophen-3-yl)-1H-pyrazol-3-yl]1-phenyl-amine], the Ki at CDK2/cyclin A complex is 22 µM; at CDK4/cyclin D3 complex, 9.7 µM.

With `C(=C\c1cscc1-c1cc(Nc2ccccc2)n[nH]1)/c1ccccc1` [Compound F, Phenyl-[5-(4-trans-styryl-thiophen-3-yl]-1H-pyrazol-3-yl]-amine], the inhibition at 10 µM on CDK2/cyclin A complex (at 10 μM, read-out: Percent Inhibition CDK2/A) came out at 37%; at CDK4/cyclin D3 complex (at 10 μM, read-out: Percent Inhibition CDK4/D), 25%.

Consider `C1=C(c2cscc2-c2cc(Nc3ccccc3)n[nH]2)CCCC1` [Compound G, [5-(4-Cyclohex-1-enyl-thiophen-3-yl)-1H-pyrazol-3-yl]-phenyl-amine], for which the Ki at CDK2/cyclin A complex and at CDK4/cyclin D3 complex was 10 µM throughout.

Turning to `c1ccc(Nc2cc(-c3cscc3C3CCCCC3)[nH]n2)cc1` [Compound H, [5-(4-Cyclohexyl-thiophen-3-yl)-1H-pyrazol-3-yl]-phenyl-amine], the Ki on CDK2/cyclin A complex and on CDK4/cyclin D3 complex was 3 µM each time.

Consider `c1ccc(Nc2cc(-c3cscc3Sc3ccccc3)[nH]n2)cc1` [Compound I, Phenyl-[5-(4-phenylsulfanyl-thiophene-3-yl)-1H-pyrazol-3-yl]-amine], for which the Ki at CDK4/cyclin D3 complex was found to be 4.7 µM.

For `c1ccc(Nc2cc(-c3c[nH]c4ccccc34)[nH]n2)cc1` [Compound J, [5-(1H-Indol-3-yl)-1H-pyrazol-3-yl]-phenyl-amine], the Ki on CDK2/cyclin A complex came out at 15 µM; in assay [1] it was 18 µM; on CDK4/cyclin D3 complex, 12 µM.

Turning to `COc1ccc(Nc2cc(-c3csc4ccccc34)[nH]n2)cc1` [Compound K, (5-Benzo[b]thiophen-3-yl-1H-pyrazol-3-yl)-4-(methoxy-phenyl)-amine], the Ki at CDK2/cyclin A complex is 6.3 µM; on CDK4/cyclin D3 complex, 4.7 µM.

Turning to `Oc1ccc(Nc2cc(-c3csc4ccccc34)[nH]n2)cc1` [Compound L, 4-(Benzo[b]thiophen-3-yl-1H-pyrazol-3-ylamino)-phenol], the Ki on CDK2/cyclin A complex came to 2 µM; on CDK4/cyclin D3 complex, 5.3 µM.

For `COc1cccc(Nc2cc(-c3csc4ccccc34)[nH]n2)c1` [Compound M], the Ki on CDK2/cyclin A complex stood at 21 µM; on CDK4/cyclin D3 complex, 4.1 µM.

Turning to `Oc1cccc(Nc2cc(-c3csc4ccccc34)[nH]n2)c1` [Compound N, 3-(Benzo[b]thiophen-3-yl-1H-pyrazol-3-ylamino)-phenol], the values for the Ki on CDK2/cyclin A complex and at CDK4/cyclin D3 complex were 2.4 µM and 4.9 µM, respectively.

Turning to `NS(=O)(=O)c1ccc(Nc2cc(-c3csc4c(Br)cccc34)[nH]n2)cc1` [Compound P, 4-[5-(7-Bromo-benzo[b]thiophen-3-yl)-1H-pyrazol-3-ylamino]-benzenesulfonamide], the Ki came out at 0.11 µM on CDK2/cyclin A complex and 2.1 µM on CDK4/cyclin D3 complex.

Regarding `COc1cccc(-c2cccc3c(-c4cc(Nc5ccc(S(N)(=O)=O)cc5)n[nH]4)csc23)c1` [Compound Q, 4-{5-[7-(3-Methoxy-phenyl)-benzo[b]thiophen-3-yl]-1H-pyrazol-3-ylamino]-benzenesulfonamide], the inhibition at 5 µM was 21% on CDK2/cyclin A complex (at 5 μM, read-out: Percent Inhibition CDK2/A) and 13% at CDK4/cyclin D3 complex (at 5 μM, read-out: Percent Inhibition CDK4/D).

Take `NS(=O)(=O)c1ccc(Nc2cc(-c3csc4c(-c5cccc(O)c5)cccc34)[nH]n2)cc1` [Compound R, 4-{5-[7-(3-Hydroxy-phenyl)-benzo[b]thiophen-3-yl]-1H pyrazol-3-ylamino]-benzenesulfonamide]: the Ki on CDK2/cyclin A complex is 2.7 µM; on CDK4/cyclin D3 complex, 3.3 µM. Moreover, in assay [1] (at 10 μM, read-out: Percent Inhibition CHK1), the inhibition at 10 µM was found to be 8%.

Regarding `NS(=O)(=O)c1ccc(Nc2cc(-c3csc4c(-c5ccc(O)cc5)cccc34)[nH]n2)cc1` [Compound T, 4-{5-[7-(4-Hydroxy-phenyl)-benzo[b]thiophen-3-yl]-1H-pyrazol-3-ylamino]-benzenesulfonamide], the Ki at CDK2/cyclin A complex was 3.2 µM; on CDK4/cyclin D3 complex, 2.1 µM.

With `NS(=O)(=O)c1ccc(Nc2cc(-c3csc4ccc(Br)cc34)[nH]n2)cc1` [Compound U, {5-[3-(5-Bromo)-benzo[b]Thiophenyl]-1-H-pyrazol-3-yl}-phenylamine-4-Sulfonamide], the Ki was found to be 0.08 µM on CDK2/cyclin A complex and 2.3 µM at CDK4/cyclin D3 complex.

Take `COc1ccc2c(-c3cc(Nc4ccc(S(N)(=O)=O)cc4)n[nH]3)csc2c1` [Compound V, 4-[5-(6-Methoxy-benzo[b]Thiophen-3-yl)-1H-pyrazol-3-ylamino]-Benzenesulfonamide]: the Ki on CDK2/cyclin A complex turned out to be 0.27 µM; at CDK4/cyclin D3 complex, 12 µM.

Consider `NS(=O)(=O)c1ccc(Nc2cc(-c3c[nH]c4ccccc34)[nH]n2)cc1` [Compound X, 4-[5-(1H-Indol-3-yl)-1H-pyrazol-3-ylamino]-Benzenesulfonamide], for which the Ki at CDK2/cyclin A complex amounted to 0.39 µM; in assay [1] it was 1.8 µM; at CDK4/cyclin D3 complex, 12 µM.
